Assay results from patent US20160235710A1, “COMPOSITION FOR TREATING OR PREVENTING ERECTILE DYSFUNCTION COMPRISING LDD175 AS ACTIVE INGREDIENT” (ANYGEN, INC., priority 2015, published 2016).
Several values for one entry are separate records, joined by “and”; a condition that tells them apart may be missing. Identical values can stand only once. Like-named read-outs stand apart in the source and are kept apart here. One block for each compound: values may come before it.

Experiments:
[1] = tested on: rabbit corporal smooth muscle (CSM) strip; assay: Organ bath relaxation of phenylephrine-pre-contracted rabbit corpus cavernosal strips; set-up: species or system New Zealand white rabbits; conditions: for relaxation, % of the phenylephrine (PE)-induced contraction: concentration-response; for % relaxation of the phenylephrine-induced contraction: synergy experiment
Text: Sexually mature male New Zealand white rabbits (3.0±0.3 kg) were killed with an air embolism in the ear vein. The entire penis was then surgically excised, and then cleaned by removing the […] and urethra. Then, the corporal tissue was carefully dissected from the surrounding tunica. Four corpus cavernosal strips with approximately equal sizes (2×2×10 mm) were obtained from each penis.
Rabbit corpus cavernosal strips were separately prepared for organ-bath studies. Each corporal strip was mounted in a 10 ml-organ chamber filled with Krebs buffer (composition in mmol/l: 118.4 NaCl, 4.7 KCl, 2.5 CaCl2, 1.2 KH2PO4, 1.2 MgSO4, 24.9 NaHCO3, and 11.1 D-glucose), with one end fixed to a tissue holder and the other secured to a force transducer. The force transducer was connected to an appropriately calibrated four-channel polygraph (Power-Lab; AD Instruments, Sydney, NSW, Australia), in which the transducer output was recorded. The corpus cavernosal strips were kept in the organ bath with Krebs solution maintained at 36.5° C. by a thermo-regulated water circuit and by continuously bubbling with a mixture of 95% O2 and 5% CO2. Each corporal strip was stretched to an optimal isometric tension of 1.0 g and was equilibrated for 60 min. During the equilibration, the tissues were washed with fresh Krebs solution every 15 min, and the tension was adjusted if necessary.
The vasodilatory effect of LDD175 was studied by cumulative addition of the sample at concentrations ranging from 10^−7 to 10^−4 M to endothelium-intact strips and endothelium-denuded strips after pre-contraction with 10^−5 M phenylephrine (PE). The endothelial lining of the corpus cavernosum was removed by rubbing the strip between the thumb and index finger for 20 seconds and soaking the same in 0.3% solution of 3[(3-cholamidopropyl)-dimethylammonio]-l-propanesulphonate (CHAPS) for 10 seconds. It was confirmed whether the endothelium was functionally completely removed for all strips by pre-contracting the strips with 10^−5 M […] PE and then adding acetylcholine (10^−6 M) thereto. […] After the addition of IbTX, LDD175 was added to strips pre-contracted with PE. The relaxation effect of the PDE5 inhibitor (udenafil, 10^−6 and 10^−5 M) was also separately measured in the same manner, and compared to that of LDD175. The synergistic relaxation effect between 10^−5 M LDD175 and 10^−6 M udenafil was also investigated.

BKCa channel = biological target: T1, BKCa channel (Homo sapiens, UniProt Q12791); assay: Whole-cell patch-clamp recording of BKCa currents in cultured human CSM cells; format: cell-based; conditions: for activation of outward rectifying K+ currents (whole-cell), increase vs. control: at +60 mV
T1 construct: Homogeneous explant cell cultures of human corporal smooth muscle (CSM) cells were prepared; endogenous in cells; host or cells: primary explant cultures of human corporal smooth muscle (CSM) cells from erectile dysfunction patients
Description: Human corporal tissues were obtained from the corpus cavernosa of patients with organic erectile dysfunction undergoing implantation of penile prostheses. Homogeneous explant cell cultures of human corporal smooth muscle (CSM) cells were prepared as follows (Palmer et al., 1994; Sung et al., 2011). Radial sections of approximately 3×3×10 mm were excised from the mid-penile shafts of the respective resected sample. These samples were tissues including smooth muscles, endothelium, and connective tissues, with occasional nerve fibers. The tissues were washed, cut into 1-2 mm pieces, and placed in tissue culture dishes filled with Dulbecco's modified Eagle's medium (DMEM, Gibco, Carlsbad, Calif., USA) supplemented with 10% fetal bovine serum and antibiotics (100 units/mL penicillin, streptomycin; Gibco), under 5% O2 and 5% CO2. After the explants were attached to the substrate (usually 1-2 days), additional medium was added. The smooth muscle cells were observed migrating from the explants, and underwent division. The cells were subsequently detached via a trypsin/EDTA protocol to establish secondary cultures from the explants. These cultures were morphologically homogeneous. The cobblestone morphology, which is the characteristic of endothelial cells, and the flattened and spread-out shape, which is the characteristic of fibroblasts, were not observed. Cellular homogeneity was further verified by observing smooth muscle-specific α-actin and myosin immuno-responsiveness. While the cultures were maintained for four or more passages, all measured pharmacological and molecular properties were evaluated in the intact tissues that were maintained in the cultures, for example, cyclic adenosine monophosphate formation (Palmer et al., 1994), calcium mobilization (Zhao and Christ, 1995), expression or function of the gap junction protein, connexin (Brink et al., 1996), and K+ channel activity (Lee et al., 1999).
The Ca^2+-activated potassium channel (BKCa) was measured by using the conventional whole-cell patch-clamp technique (Sung et al., 2011). Patch electrodes were made from borosilicate glass capillary tubing (World Precision Instruments, Sarasota, Fla., USA), and had 2.5-5 MO resistance. The cell suspension was placed into a small chamber (0.6 ml) on the stage of an inverted microscope (TMD Diaphot, Nikon, Tokyo, Japan). The membrane currents in smooth muscle cells were recorded using a patch clamp amplifier (Axopatch-1 D, Axon Instruments, Foster City, Calif., USA). The liquid junction potential between the pipette solution and the bath solution was only about 3 mV, and thus uncorrected. In each experiment, whole-cell configuration was not achieved until the seal resistance became larger than 5 GO. The pCLAMP software (Axon Instruments) and Digidata-1322A (Axon Instruments) were used for data acquisition and application of command pulses. Membrane currents were measured during ramping, and filtered at 5 kHz (−3 dB frequency). The current signals were filtered at 5 kHz, digitized, and analyzed on a personal computer using pCLAMP and Origin software (Microcal Software, Northampton, Mass., USA). The standard bath solution was prepared to contain 135 mmol NaCl, 5 mmol KCl, 10 mmol HEPES, 1.8 mmol CaCl2, 1 mmol MgCl2, and 5 mmol glucose, per liter, at pH 7.4 adjusted with NaOH. The pipette (internal) solution was prepared to contain, per liter, 140 mmol KCl, 10 mmol HEPES, 5 mmol K2ATP, 2 mmol MgCl2, 5 mmol ethyleneglycol-bis-[2-aminoethyl ether]-N,N′-tetraacetic acid (EGTA), and 0.5 mmol GTP, at pH 7.2 adjusted with KOH. The Ca^2+-free concentration in the pipette solution was adjusted to 3.15 nM by adding an appropriate amount of CaCl2, determined using the Max Chelator Sliders software (C. Patton, Stanford University).

[2] = tested on: erectile function of rats; assay: In vivo cavernous nerve stimulation model, erectile response; set-up: species or system Sprague-Dawley rats
Description: (§1) The erectile response was measured using Sprague-Dawley rats. The detailed methodology of measuring the erectile response has been described previously (Rehman et al., 1997). The 8-10 wk aged rats were anesthetized with intramuscular injection of Zoletil 100 mg/kg (Virbac, Carros, France), and placed on a thermally regulated surgical table. Systemic arterial blood pressure (ABP) was monitored via carotid artery cannulation (polyethylene-50 tubing). The prostate and bladder were exposed through a midline abdominal incision. The major pelvic ganglion, pelvic nerves, and cavernous nerve were identified as posterolateral to the prostate on each side. An electric stimulator with stainless steel bipolar hook electrodes was placed around the cavernous nerve for electrical stimulation. To monitor intracavernosal pressure (ICP), a 25-gauge cannula was filled with […], connected to polyethylene-50 tubing, and inserted into one side of the crura. Systemic arterial blood pressure (ABP) and intracavernosal pressure (ICP) were measured with a transducer connected to a PowerLab® (AD Instruments, Colorado Spring, Colo., USA), which is a computerized system for data acquisition. Real-time display and documentation of pressure were conducted with Chart™ 6 software. Sub-maximal electrical field stimulation (EFS) was used with 1 V, 2 Hz, 5 ms pulse width, and duration of 60 seconds. Sub-maximal electrical field stimulation was applied 10 min after a series of control (buffer solution alone), LDD175 (10 mg/kg), and udenafil (1 mg/kg) injections. At the end of sub-maximal stimulation, the full response was measured using the EFS of 6 V, 10 Hz, 5 ms pulse width, with duration of 60 seconds. Buffer solution, LDD175, and udenafil were administered at intervals of 30 min. The ratio of maximal ICP to mean arterial BP at the peak of the erectile response was calculated in order to control for variations in ABP.

[3] = tested on: rat model with diabetic erectile dysfunction; assay: Diabetic erectile dysfunction rat model (streptozotocin), intracavernosal pressure; format: in vivo, Sprague-Dawley rats; conditions: for maximal ICP/ABP ratio: 5 V
Description: as §1
The 8-wk aged male Sprague-Dawley rats were administered with an intraperitoneal injection of streptozotocin (65 mg/kg body weight) dissolved in 5 mM citric acid buffer (pH 4.5), thereby inducing insulin dependent diabetes mellitus (IDDM). Rats of the normal control were injected with only 5 mM citric acid buffer (pH 4.5) by the same method. On day 2 of breeding, the rats were fasted for 16 hours, and the blood was collected from the tail vein to conduct the blood glucose test. Only rats with a blood glucose level of 250 mg/de or higher were selected for a diabetes induced group.

BP and heart rate = conditions: cited from earlier work
aortic rings of rats = conditions: cited from earlier work
[4] = sub-maximal EFS, intravenous LDD175 10 mg/kg, n=8

T1 sequence (Q12791 whole entry): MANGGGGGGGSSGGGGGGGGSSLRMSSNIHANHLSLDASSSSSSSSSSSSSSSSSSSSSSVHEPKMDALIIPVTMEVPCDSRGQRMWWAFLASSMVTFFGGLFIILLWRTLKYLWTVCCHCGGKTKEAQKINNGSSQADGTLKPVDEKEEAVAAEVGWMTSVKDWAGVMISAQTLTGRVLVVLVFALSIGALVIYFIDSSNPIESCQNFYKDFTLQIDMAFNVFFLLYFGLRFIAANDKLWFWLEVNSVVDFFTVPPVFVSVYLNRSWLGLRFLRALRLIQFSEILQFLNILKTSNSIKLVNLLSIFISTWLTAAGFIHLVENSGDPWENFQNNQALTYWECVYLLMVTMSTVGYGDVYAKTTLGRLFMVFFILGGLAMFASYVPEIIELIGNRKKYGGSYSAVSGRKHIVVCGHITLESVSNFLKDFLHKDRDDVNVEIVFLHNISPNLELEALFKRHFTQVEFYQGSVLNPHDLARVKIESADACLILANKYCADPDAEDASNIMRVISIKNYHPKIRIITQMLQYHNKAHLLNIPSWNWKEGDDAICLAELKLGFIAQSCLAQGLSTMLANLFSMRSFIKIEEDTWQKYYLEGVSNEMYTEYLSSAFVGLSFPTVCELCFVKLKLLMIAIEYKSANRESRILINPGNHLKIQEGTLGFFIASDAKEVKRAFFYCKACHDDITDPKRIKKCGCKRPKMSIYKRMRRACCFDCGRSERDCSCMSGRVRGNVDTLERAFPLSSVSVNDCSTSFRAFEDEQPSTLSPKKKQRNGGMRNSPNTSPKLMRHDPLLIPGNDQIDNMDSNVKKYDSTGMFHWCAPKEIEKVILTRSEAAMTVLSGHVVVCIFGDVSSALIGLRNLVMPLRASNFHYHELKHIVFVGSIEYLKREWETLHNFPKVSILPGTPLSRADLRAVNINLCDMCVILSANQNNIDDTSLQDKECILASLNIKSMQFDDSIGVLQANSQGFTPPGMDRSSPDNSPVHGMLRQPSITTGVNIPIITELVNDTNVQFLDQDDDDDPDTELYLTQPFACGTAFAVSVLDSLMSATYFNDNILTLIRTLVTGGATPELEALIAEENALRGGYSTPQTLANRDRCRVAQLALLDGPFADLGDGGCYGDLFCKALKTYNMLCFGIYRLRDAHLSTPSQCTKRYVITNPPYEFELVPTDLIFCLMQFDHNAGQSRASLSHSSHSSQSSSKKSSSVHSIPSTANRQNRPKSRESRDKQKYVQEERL

Compound: O=C(O)c1ccc(Cl)c2c1[nH]c1c3ccc(C(F)(F)F)cc3oc12 [LDD175, 4-chloro-7-trifluoromethyl-10H-benzo[4,5]furo[3,2-b]indole-1-carboxylic acid]
- relaxation response ([1]; 10^−4 M LDD175, denuded endothelium, n=10): 41.0±4.9%
- relaxation response ([1]; 10^−4 M LDD175, intact endothelium, n=7): 45.9±6.2%
- relaxation response after IbTX pretreatment ([1]; 10^−4 M LDD175, strips pre-treated with 100 nM IbTX for 30 minutes, n=7): 23.6±3.3%
- relaxation, % of the phenylephrine (PE)-induced contraction ([1]; 10^−4 M): 54.0±3.0% and 54.0±3.1%
- % relaxation of the phenylephrine-induced contraction ([1]; 10^−5 M alone, n=7): 32.7±3.8%
- relaxation, % of the phenylephrine (PE)-induced contraction ([1]; 10^−5 M): 26.3±2.0%
- relaxation, % of the phenylephrine (PE)-induced contraction ([1]; 10^−6 M): 14.5±2.6%
- relaxation, % of the phenylephrine (PE)-induced contraction ([1]; 10^−7 M): 3.7±1.4%
- peak current density (BKCa channel; 0.1 μM, +60 mV, n=10): 30.9±6.5 pA/pF
- peak current density (BKCa channel; 1 μM, +60 mV, n=10): 45.1±8.2 pA/pF
- peak current density (BKCa channel; 10 μM, +60 mV, n=10): 178.5±30.0 pA/pF
- peak current density (BKCa channel; 30 μM, +60 mV, n=10): 257.3±48.3 pA/pF
- activation of outward rectifying K+ currents (whole-cell), increase vs. control (BKCa channel; 30 μM): 952.1%
- peak current density (BKCa channel; 30 μM, −40 mV): 23.9±5.8 pA/pF
- peak current density, fold vs. control (BKCa channel; 30 μM, −40 mV): 42.8 fold
- peak current density (BKCa channel; 100 μM, +60 mV, n=10): 265.5±53.4 pA/pF
- BP fluctuation and hemodynamical instability ([2]; during in vivo cavernous nerve stimulation): not observed
- area under curve (AUC) of ICP/ABP ratio [2, 4]: 1444.4±133.3
- maximal ICP [2, 4]: 57.8±6.6 mmHg
- maximal ICP/ABP ratio [2, 4]: 45.3±5.8%
- intracavernosal pressure ([3]; LDD175 5 mg/kg and 10 mg/kg injection groups, 10 mg/kg more effective than 5 mg/kg): significantly increased
- effect of LDD175 on intracavernosal pressure after BKCa channel inhibitor ([3]; TEA 30 mg/kg injected, after 10 minutes LDD175 10 mg/kg): completely inhibited
- BP and heart rate changes following intravenous administration (BP and heart rate; 10 mg/kg LDD175, intravenous): did not cause significant changes
- adverse cardiovascular effects in in vivo animal experiments (BP and heart rate; rat, in vivo): no significant adverse cardiovascular effects
- relaxation of aortic rings (aortic rings of rats): not relaxed

- activation of outward rectifying K+ currents (whole-cell), increase vs. control (BKCa channel; 30 μM): 880.0%
- peak current density (BKCa channel; 30 μM, −40 mV): 1.5±0.6 pA/pF
- peak current density, fold vs. control (BKCa channel; 30 μM, −40 mV): 1.3 fold
Compound: O=c1[nH]c2cc(C(F)(F)F)ccc2n1-c1cc(C(F)(F)F)ccc1O [NS1619, reference compound]

Compound: CC[N+](CC)(CC)CC [TEA, tetraethylammonium, reference compound]
- suppression of LDD175-activated K+ currents (BKCa channel): 78.2%

Compound: CCCc1nn(C)c2c(=O)[nH]c(-c3cc(S(=O)(=O)N4CCN(C)CC4)ccc3OCC)nc12 [sildenafil]
- maximal ICP/ABP ratio ([3]; 1 mg/kg, n=6): 55.4±5.2
- maximal ICP/ABP ratio ([3]; 5 mg/kg, n=7): 69.9±5.4

Compound: CCCOc1ccc(S(=O)(=O)NCCC2CCCN2C)cc1-c1nc2c(CCC)nn(C)c2c(=O)[nH]1 (stereo not drawn) [udenafil, reference compound]
- relaxation, % of the phenylephrine (PE)-induced contraction ([1]; 10^−5 M): 67.1±1.7%
- % relaxation of the phenylephrine-induced contraction ([1]; 10^−6 M alone, n=7): 21.6±2.7%
- relaxation, % of the phenylephrine (PE)-induced contraction ([1]; 10^−6 M): 34.5±3.9%
- effect on maximal ICP, maximal ICP/ABP ratio and AUC of ICP/ABP ratio compared with 10 mg/kg LDD175 ([2]; 1 mg/kg udenafil, sub-maximal EFS): no difference

Compound: iberiotoxin (QFTDVDCSVSKECWSVCKDLFGVDRGKCMGKKCRCYQ; UniProt P24663 1-37, looked up) [IbTX, reference compound]
- suppression of LDD175-activated K+ currents (BKCa channel; 100 nM IbTX, n=4): 78.1%
